From ChEMBL document CHEMBL4507297, “Data for DCP probe PF-04457845” (2021)

What was measured:
[1] = target: Maternal embryonic leucine zipper kinase (Homo sapiens) (UniProt Q14680); conditions: Compound concentration 1000.0 nM
[2] = tested on: Tyrosine-protein kinase ABL1 (Homo sapiens), P00519 [E255K]; conditions: Compound concentration 1000.0 nM
[3] = target: Vascular endothelial growth factor receptor 3 (Homo sapiens) (UniProt P35916); conditions: Compound concentration 1000.0 nM
[4] = target: Calcium/calmodulin-dependent protein kinase kinase 2 (Homo sapiens) (UniProt Q96RR4); conditions: Compound concentration 1000.0 nM
[5] = target: Cyclin-dependent kinase-like 5 (Homo sapiens) (UniProt O76039); conditions: Compound concentration 1000.0 nM
[6] = target: Serine/threonine-protein kinase RIO3 (Homo sapiens) (UniProt O14730); conditions: Compound concentration 1000.0 nM
[7] = target: Ribosomal protein S6 kinase alpha-5 (Homo sapiens) (UniProt O75582); conditions: Compound concentration 1000.0 nM
[8] = target: Rhodopsin kinase GRK1 (Homo sapiens) (UniProt Q15835); conditions: Compound concentration 1000.0 nM
[9] = target: Tyrosine-protein kinase Fes/Fps (Homo sapiens) (UniProt P07332); conditions: Compound concentration 1000.0 nM
[10] = target: RAF proto-oncogene serine/threonine-protein kinase (Homo sapiens) (UniProt P04049); conditions: Compound concentration 1000.0 nM
[11] = target: Serine/threonine-protein kinase NIM1 (Homo sapiens) (UniProt Q8IY84); conditions: Compound concentration 1000.0 nM
Serine/threonine-protein kinase NIM1 (Homo sapiens), sequence (Q8IY84 whole entry): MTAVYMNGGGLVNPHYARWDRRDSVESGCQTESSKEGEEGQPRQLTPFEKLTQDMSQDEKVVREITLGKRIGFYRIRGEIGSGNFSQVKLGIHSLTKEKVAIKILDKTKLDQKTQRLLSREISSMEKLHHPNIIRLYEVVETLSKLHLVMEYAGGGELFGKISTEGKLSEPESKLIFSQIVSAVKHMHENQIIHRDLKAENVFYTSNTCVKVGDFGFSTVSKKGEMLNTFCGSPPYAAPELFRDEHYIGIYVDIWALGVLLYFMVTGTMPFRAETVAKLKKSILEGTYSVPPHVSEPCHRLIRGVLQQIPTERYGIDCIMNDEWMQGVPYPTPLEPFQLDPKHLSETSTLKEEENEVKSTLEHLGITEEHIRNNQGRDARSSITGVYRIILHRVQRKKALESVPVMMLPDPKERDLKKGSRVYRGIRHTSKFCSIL

[12] = target: Receptor tyrosine-protein kinase erbB-3 (Homo sapiens) (UniProt P21860); conditions: Compound concentration 1000.0 nM
[13] = target: MAP kinase-activated protein kinase 5 (Homo sapiens) (UniProt Q8IW41); conditions: Compound concentration 1000.0 nM
[14] = target: AP2-associated protein kinase 1 (Homo sapiens) (UniProt Q2M2I8); conditions: Compound concentration 1000.0 nM
AP2-associated protein kinase 1 (Homo sapiens), sequence (Q2M2I8 whole entry, looked up): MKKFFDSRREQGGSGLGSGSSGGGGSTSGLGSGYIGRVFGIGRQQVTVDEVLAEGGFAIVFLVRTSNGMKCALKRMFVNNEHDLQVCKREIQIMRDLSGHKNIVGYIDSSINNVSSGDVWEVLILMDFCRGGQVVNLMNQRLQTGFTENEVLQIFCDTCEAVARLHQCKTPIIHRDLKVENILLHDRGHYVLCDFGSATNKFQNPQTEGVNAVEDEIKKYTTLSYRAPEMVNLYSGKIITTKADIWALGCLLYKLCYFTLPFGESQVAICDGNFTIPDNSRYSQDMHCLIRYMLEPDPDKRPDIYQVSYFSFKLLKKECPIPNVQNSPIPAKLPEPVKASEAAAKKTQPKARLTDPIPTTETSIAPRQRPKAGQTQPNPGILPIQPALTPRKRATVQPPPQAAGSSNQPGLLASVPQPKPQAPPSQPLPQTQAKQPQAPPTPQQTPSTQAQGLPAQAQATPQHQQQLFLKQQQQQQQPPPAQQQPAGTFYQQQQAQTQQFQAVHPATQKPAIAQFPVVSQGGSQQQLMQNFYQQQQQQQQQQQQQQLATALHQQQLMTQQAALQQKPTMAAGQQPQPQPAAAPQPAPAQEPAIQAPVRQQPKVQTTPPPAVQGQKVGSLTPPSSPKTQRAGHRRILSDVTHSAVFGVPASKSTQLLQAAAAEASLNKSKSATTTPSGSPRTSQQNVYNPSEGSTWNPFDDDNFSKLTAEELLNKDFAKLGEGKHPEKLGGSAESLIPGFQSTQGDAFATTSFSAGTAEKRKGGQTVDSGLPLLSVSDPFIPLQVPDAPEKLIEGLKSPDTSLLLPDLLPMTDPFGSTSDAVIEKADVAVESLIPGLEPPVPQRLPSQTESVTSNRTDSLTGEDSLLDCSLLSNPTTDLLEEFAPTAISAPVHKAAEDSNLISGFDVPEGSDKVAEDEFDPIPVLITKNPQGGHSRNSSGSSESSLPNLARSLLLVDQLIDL

[15] = target: Insulin receptor-related protein (Homo sapiens) (UniProt P14616); conditions: Compound concentration 1000.0 nM
[16] = tested on: Hepatocyte growth factor receptor (Homo sapiens), P08581 [Y1235D]; conditions: Compound concentration 1000.0 nM
[17] = target: Receptor tyrosine-protein kinase erbB-2 (Homo sapiens) (UniProt P04626); conditions: Compound concentration 1000.0 nM
[18] = target: Mitogen-activated protein kinase 13 (Homo sapiens) (UniProt O15264); conditions: Compound concentration 1000.0 nM
[19] = target: Uncharacterized serine/threonine-protein kinase SBK3 (Homo sapiens) (UniProt P0C264); conditions: Compound concentration 1000.0 nM
[20] = target: Ephrin type-A receptor 7 (Homo sapiens) (UniProt Q15375); conditions: Compound concentration 1000.0 nM
Ephrin type-A receptor 7 (Homo sapiens), sequence (Q15375 28-998 limits assumed): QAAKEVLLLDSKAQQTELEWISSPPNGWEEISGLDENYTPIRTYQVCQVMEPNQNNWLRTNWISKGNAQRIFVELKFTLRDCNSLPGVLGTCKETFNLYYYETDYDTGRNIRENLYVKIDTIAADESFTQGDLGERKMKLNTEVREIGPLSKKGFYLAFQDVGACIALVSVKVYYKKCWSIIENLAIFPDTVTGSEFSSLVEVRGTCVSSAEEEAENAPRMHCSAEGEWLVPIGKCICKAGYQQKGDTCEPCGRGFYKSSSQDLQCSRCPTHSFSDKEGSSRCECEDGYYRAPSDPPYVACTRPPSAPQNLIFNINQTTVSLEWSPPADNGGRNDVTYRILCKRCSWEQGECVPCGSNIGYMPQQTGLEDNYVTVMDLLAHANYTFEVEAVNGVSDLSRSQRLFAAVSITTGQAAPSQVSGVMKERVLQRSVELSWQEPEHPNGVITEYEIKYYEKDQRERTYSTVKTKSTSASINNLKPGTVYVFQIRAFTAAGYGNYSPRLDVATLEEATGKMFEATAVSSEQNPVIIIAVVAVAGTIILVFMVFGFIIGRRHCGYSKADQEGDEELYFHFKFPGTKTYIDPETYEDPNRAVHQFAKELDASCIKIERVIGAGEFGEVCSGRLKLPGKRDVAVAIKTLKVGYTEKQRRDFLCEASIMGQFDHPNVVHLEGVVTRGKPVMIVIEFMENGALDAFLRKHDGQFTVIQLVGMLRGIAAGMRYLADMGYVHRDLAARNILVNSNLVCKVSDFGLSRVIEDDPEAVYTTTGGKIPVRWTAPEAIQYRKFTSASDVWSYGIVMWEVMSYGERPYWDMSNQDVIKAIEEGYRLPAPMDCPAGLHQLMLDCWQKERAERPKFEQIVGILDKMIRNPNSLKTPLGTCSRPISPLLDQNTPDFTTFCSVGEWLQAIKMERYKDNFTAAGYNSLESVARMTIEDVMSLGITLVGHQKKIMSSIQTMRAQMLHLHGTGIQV

[21] = target: Ribosomal protein S6 kinase alpha-4 (Homo sapiens) (UniProt O75676); conditions: Compound concentration 1000.0 nM
[22] = target: Serine/threonine-protein kinase ULK2 (Homo sapiens) (UniProt Q8IYT8); conditions: Compound concentration 1000.0 nM
[23] = target: 5-hydroxytryptamine receptor 1B (Homo sapiens) (UniProt P28222); conditions: Compound concentration 10.0 uM
[24] = target: Ephrin type-A receptor 2 (Homo sapiens) (UniProt P29317); conditions: Compound concentration 1000.0 nM
[25] = target: Protein-tyrosine kinase 6 (Homo sapiens) (UniProt Q13882); conditions: Compound concentration 1000.0 nM
[26] = target: 5-hydroxytryptamine receptor 1E (Homo sapiens) (UniProt P28566); conditions: Compound concentration 10.0 uM
[27] = target: Phosphorylase b kinase gamma catalytic chain, skeletal muscle/heart isoform (Homo sapiens) (UniProt Q16816); conditions: Compound concentration 1000.0 nM
[28] = target: Ribosomal protein S6 kinase alpha-6 (Homo sapiens) (UniProt Q9UK32); conditions: Compound concentration 1000.0 nM
[29] = target: Tyrosine-protein kinase Blk (Homo sapiens) (UniProt P51451); conditions: Compound concentration 1000.0 nM
[30] = tested on: Receptor-type tyrosine-protein kinase FLT3 (Homo sapiens), P36888 [D835H]; conditions: Compound concentration 1000.0 nM
[31] = target: Serine/threonine-protein kinase PAK 3 (Homo sapiens) (UniProt O75914); conditions: Compound concentration 1000.0 nM
Serine/threonine-protein kinase PAK 3 (Homo sapiens), sequence (O75914 whole entry, looked up): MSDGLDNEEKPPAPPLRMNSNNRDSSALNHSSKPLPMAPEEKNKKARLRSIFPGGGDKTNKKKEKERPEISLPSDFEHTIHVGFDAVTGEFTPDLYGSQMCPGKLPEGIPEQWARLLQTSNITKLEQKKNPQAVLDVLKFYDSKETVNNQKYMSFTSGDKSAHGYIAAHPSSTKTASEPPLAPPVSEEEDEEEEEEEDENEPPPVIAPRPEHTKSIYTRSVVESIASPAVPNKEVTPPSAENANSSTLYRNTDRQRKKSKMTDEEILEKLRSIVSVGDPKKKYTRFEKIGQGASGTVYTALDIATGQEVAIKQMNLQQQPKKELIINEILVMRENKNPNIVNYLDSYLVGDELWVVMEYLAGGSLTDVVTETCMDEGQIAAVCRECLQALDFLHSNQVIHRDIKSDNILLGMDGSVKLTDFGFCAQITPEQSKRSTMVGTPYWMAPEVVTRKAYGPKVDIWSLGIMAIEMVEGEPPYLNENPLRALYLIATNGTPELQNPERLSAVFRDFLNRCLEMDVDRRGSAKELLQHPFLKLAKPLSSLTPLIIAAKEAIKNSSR

[32] = tested on: Receptor-type tyrosine-protein kinase FLT3 (Homo sapiens), P36888 [UNDEFINED MUTATION]; conditions: Compound concentration 1000.0 nM
[33] = target: Activin receptor type-2A (Homo sapiens) (UniProt P27037); conditions: Compound concentration 1000.0 nM
[34] = target: Serine/threonine-protein kinase MAK (Homo sapiens) (UniProt P20794); conditions: Compound concentration 1000.0 nM
[35] = target: Tyrosine-protein kinase JAK1 (Homo sapiens) (UniProt P23458); conditions: Compound concentration 1000.0 nM
[36] = target: Serine/threonine-protein kinase Sgk2 (Homo sapiens) (UniProt Q9HBY8); conditions: Compound concentration 1000.0 nM
[37] = target: Mitogen-activated protein kinase kinase kinase 15 (Homo sapiens) (UniProt Q6ZN16); conditions: Compound concentration 1000.0 nM
[38] = target: Serine/threonine-protein kinase PLK3 (Homo sapiens) (UniProt Q9H4B4); conditions: Compound concentration 1000.0 nM
[39] = target: Testis-specific serine/threonine-protein kinase 1 (Homo sapiens) (UniProt Q9BXA7); conditions: Compound concentration 1000.0 nM
[40] = target: Bone morphogenetic protein receptor type-2 (Homo sapiens) (UniProt Q13873); conditions: Compound concentration 1000.0 nM
Bone morphogenetic protein receptor type-2 (Homo sapiens), sequence (Q13873 whole entry): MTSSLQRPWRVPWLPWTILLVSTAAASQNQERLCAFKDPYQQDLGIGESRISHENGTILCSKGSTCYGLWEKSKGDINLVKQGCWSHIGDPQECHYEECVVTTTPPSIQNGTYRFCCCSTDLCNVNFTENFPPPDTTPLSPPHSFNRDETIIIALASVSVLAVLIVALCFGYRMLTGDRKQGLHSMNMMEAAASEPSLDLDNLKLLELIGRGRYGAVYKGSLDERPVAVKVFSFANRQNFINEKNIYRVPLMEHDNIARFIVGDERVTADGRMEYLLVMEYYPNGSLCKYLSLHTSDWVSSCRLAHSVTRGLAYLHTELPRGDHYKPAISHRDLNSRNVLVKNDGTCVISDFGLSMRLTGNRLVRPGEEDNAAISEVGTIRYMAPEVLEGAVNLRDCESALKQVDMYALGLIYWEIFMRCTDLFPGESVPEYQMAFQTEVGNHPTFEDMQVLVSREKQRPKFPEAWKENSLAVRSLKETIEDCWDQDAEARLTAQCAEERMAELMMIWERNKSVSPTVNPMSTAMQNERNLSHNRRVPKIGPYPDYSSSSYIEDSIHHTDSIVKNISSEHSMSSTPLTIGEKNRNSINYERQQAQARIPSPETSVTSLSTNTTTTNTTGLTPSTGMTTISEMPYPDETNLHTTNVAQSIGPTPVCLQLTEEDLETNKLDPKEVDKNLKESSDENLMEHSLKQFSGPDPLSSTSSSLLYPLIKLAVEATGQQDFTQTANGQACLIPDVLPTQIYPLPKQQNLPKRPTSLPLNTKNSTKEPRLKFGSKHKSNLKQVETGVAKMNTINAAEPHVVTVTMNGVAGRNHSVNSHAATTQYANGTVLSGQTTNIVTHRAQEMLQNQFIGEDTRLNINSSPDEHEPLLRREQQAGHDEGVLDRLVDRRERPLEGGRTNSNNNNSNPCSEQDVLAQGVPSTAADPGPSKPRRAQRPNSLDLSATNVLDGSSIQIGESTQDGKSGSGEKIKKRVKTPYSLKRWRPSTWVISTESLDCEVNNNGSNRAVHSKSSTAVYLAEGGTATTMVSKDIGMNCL

[41] = target: Calcium/calmodulin-dependent protein kinase type II subunit delta (Homo sapiens) (UniProt Q13557); conditions: Compound concentration 1000.0 nM
Calcium/calmodulin-dependent protein kinase type II subunit delta (Homo sapiens), sequence (Q13557 whole entry): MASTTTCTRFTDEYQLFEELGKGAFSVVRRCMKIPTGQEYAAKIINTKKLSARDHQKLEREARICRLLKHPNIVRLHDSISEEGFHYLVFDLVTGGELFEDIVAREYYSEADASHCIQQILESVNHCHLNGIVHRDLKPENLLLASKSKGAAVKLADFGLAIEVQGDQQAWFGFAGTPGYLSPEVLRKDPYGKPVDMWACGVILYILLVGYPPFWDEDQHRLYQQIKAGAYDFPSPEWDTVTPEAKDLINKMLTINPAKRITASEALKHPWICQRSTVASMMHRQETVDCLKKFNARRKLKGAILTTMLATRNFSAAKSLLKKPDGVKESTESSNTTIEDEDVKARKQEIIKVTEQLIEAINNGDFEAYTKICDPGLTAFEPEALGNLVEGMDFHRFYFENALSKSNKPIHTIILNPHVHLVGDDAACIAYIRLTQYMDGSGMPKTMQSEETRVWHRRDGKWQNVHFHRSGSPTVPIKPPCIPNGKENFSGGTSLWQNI

[42] = tested on: Receptor-type tyrosine-protein kinase FLT3 (Homo sapiens), P36888 [R834Q]; conditions: Compound concentration 1000.0 nM
[43] = target: Serine/threonine-protein kinase tousled-like 2 (Homo sapiens) (UniProt Q86UE8); conditions: Compound concentration 1000.0 nM
[44] = target: Activin receptor type-2B (Homo sapiens) (UniProt Q13705); conditions: Compound concentration 1000.0 nM
Activin receptor type-2B (Homo sapiens), sequence (Q13705 whole entry): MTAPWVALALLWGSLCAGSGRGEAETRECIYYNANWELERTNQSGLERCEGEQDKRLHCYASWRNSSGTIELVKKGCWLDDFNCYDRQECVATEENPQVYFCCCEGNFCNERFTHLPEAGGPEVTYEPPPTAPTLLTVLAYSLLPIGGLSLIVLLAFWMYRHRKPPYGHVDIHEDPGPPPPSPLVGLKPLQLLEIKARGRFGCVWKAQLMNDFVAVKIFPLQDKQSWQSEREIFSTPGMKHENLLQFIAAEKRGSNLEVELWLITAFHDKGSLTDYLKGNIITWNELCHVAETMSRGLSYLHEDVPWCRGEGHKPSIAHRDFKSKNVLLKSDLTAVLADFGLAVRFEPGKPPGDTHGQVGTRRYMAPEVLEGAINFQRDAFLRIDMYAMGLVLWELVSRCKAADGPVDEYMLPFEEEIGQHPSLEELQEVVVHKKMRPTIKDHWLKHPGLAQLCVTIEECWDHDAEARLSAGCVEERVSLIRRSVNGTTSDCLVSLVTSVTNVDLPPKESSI

[45] = target: cGMP-dependent protein kinase 1 (Homo sapiens) (UniProt Q13976); conditions: Compound concentration 1000.0 nM

O=C(Nc1cccnn1)N1CC(C/C=C/c2cncc(Oc3ccc(C(F)(F)F)cn3)n2)C1
inactive: residual activity [1] 100% | residual activity [2] 81% | residual activity [3] 100% | residual activity [4] 100% | residual activity [5] 73% | residual activity [6] 100% | residual activity [7] 100% | residual activity [8] 82% | residual activity [9] 91% | residual activity [10] 100% | residual activity [11] 76% | residual activity [12] 99% | residual activity [13] 76% | residual activity [14] 100% | residual activity [15] 100% | residual activity [16] 100% | residual activity [17] 83% | residual activity [18] 100% | residual activity [19] 100% | residual activity [20] 100% | residual activity [21] 92% | residual activity [22] 73% | inhibition [23] 4.8% | residual activity [24] 100% | residual activity [25] 91% | inhibition [26] 0.84% | residual activity [27] 100% | residual activity [28] 89% | residual activity [29] 65% | residual activity [30] 100% | residual activity [31] 100% | residual activity [32] 68% | residual activity [33] 100% | residual activity [34] 100% | residual activity [35] 95% | residual activity [36] 74% | residual activity [37] 81% | residual activity [38] 80% | residual activity [39] 100% | residual activity [40] 76% | residual activity [41] 100% | residual activity [42] 66% | residual activity [43] 100% | residual activity [44] 98% | residual activity [45] 100%

O=C(Nc1cccnn1)N1CCC(=Cc2cccc(Oc3ccc(C(F)(F)F)cn3)c2)CC1
inactive: residual activity [1] 100% | residual activity [2] 85% | residual activity [3] 80% | residual activity [4] 73% | residual activity [5] 100% | residual activity [6] 100% | residual activity [7] 83% | residual activity [8] 89% | residual activity [9] 76% | residual activity [10] 63% | residual activity [11] 100% | residual activity [12] 84% | residual activity [13] 100% | residual activity [14] 74% | residual activity [15] 100% | residual activity [16] 100% | residual activity [17] 72% | residual activity [18] 86% | residual activity [19] 100% | residual activity [20] 95% | residual activity [21] 100% | residual activity [22] 100% | inhibition [23] 24.4% | residual activity [24] 81% | residual activity [25] 100% | inhibition [26] 19% | residual activity [27] 100% | residual activity [28] 100% | residual activity [29] 100% | residual activity [30] 88% | residual activity [31] 73% | residual activity [32] 94% | residual activity [33] 100% | residual activity [34] 100% | residual activity [35] 100% | residual activity [36] 100% | residual activity [37] 100% | residual activity [38] 100% | residual activity [39] 82% | residual activity [40] 100% | residual activity [41] 82% | residual activity [42] 100% | residual activity [43] 100% | residual activity [44] 98% | residual activity [45] 100%
